Where two headings read alike, the source gives them in different places. Values belong to the compound of their own block, whether it stands above or below them.
Legend:
[1] = test system: sarcolemma excitability in single myofibers of isolated Extensor Digitorum Longus (EDL) muscles; assay: In vitro antimyotonic activity in rat EDL skeletal muscle fibers, 9-AC-induced myotonia-like condition, two-microelectrode current clamp; type: cell-based; conditions: for reduction of N spikes (maximum number of spikes): vs 9-AC alone
Description: The antimyotonic activity of safinamide was assessed by recording the sarcolemma excitability in single myofibers of isolated Extensor Digitorum Longus (EDL) muscles using two-microelectrode current-clamp technique. The in-vitro model of myotonia congenita was obtained by incubating rat EDL muscles with 9-anthracene carboxylic acid (9-AC) (Conte Camerino et al., Muscle Nerve. 1989; 12(11):898-904. Altamura et al., Br J Pharmacol. 2018; 175(10):1770-1780). The increase of sarcolemma excitability caused by 9-AC through the blockade of skeletal muscle ClC-1 chloride channels mimicked the abnormal action potential firing observed in patients affected by myotonia congenita.
EDL muscles were dissected out from male Wistar rats under deep anaesthesia (80 mg/kg ip ketamine and 10 mg/kg ip xylazine). Muscles were placed in a 25 ml muscle bath maintained at 30° C. and perfused with saline (gassed with 95% O2 and 5% CO2; pH=7.2-7.3). By means of standard two-intracellular-microelectrode technique, the resting membrane potential and excitability characteristics (number of spikes) of muscle fibres were measured in current clamp mode. The excitability characteristics of the sampled fibres were determined by recording the intracellular membrane potential response to a square-wave constant (100 ms) current pulse. In each fibre, the membrane potential was set by a steady holding current to −80 mV before passing the depolarizing pulses. By increasing the amplitude of the pulse we were able to elicit the first single action potential and by further increasing current intensity in the same fibre, the maximum number of elicitable spikes (N spikes) was measured (Pierno et al., Br J Pharmacol. 2006; 149(7):909-19).
Unwarranted muscle contractions were hampered with dantrolene sodium (2 mg/1). Cell excitability parameters (N spikes) was measured before (control) and after 50 μM 9-AC alone and concomitant application of safinamide at six different concentrations (0.1 to 30 μM). In these experimental conditions, safinamide methanesulfonate was used and dissolved as stock solution (10 mM) in distilled water, then it was diluted to the final concentrations in the muscle bath solution. One animal was used to test two concentrations of safinamide: one concentration in each EDL muscle.

[2] = test system: rat model of myotonia congenita; assay: In vivo antimyotonic activity in 9-AC-induced rat model of myotonia congenita, time of righting reflex (TRR)
Description: Myotonia was induced in rats by intraperitoneal injection of 9-AC, which is a known blocker of skeletal muscle ClC-1 chloride channels (Conte Camerino et al., Muscle Nerve. 1989; 12(11):898-904. Altamura et al., Br J Pharmacol. 2018; 175(10):1770-1780). Male Wistar rats (250-300 g) were used. Experiments were performed in accordance with the Guide for the Care and Use of Laboratory Animals and with Italian Health Department approval n. 194/2018-PR. Experimenters were blinded to the treatments. In this animal model, 9-AC mimics in vivo myotonia congenita, a human disease due to loss-of-function mutations in CLCN1 gene encoding ClC-1 channels. […] Nevertheless, the animals remained fully conscious and alert. Breathing was normal. When hearing an unexpected noise, the animals reacted by a jump on site but had great difficulties to move away due to muscle stiffness. Myotonia was evaluated by measuring the time of righting reflex (TRR, the time needed for the rat placed in supine position to turn back on its four paws). In rats, before 9-AC injections the TRR was less than 0.5 s. […] Then the TRR decreased gradually over time, being close to 1 s, 3 h after 9-AC. An anti-myotonic drug is expected to counteract the 9-AC-induced TRR prolongation. The TRR was evaluated about 10 minutes before 9-AC (Time 0) and 10, 37, 67, 127, and 187 min after 9-AC (30 mg/kg i.p.). The TRR measured at each time point was the mean of 7 measurements spaced by 1 min (to limit warm-up effect). Safinamide methanesulfonate (10 and 30 mg/kg as free base) or vehicle were administrated by oral gavage to the rats 17 min after 9-AC injection. 9-AC and safinamide methanesulfonate were dissolved in bicarbonate and 0.9% NaCl solution, respectively. To allow comparison between rats, the TRR measured at each time point was normalized as a function of TRR measured 10 min after 9AC injection in the same rat. Then average data were calculated for each dosage as the mean±S.E.M. Statistical analysis was performed using one-way analysis of variance (ANOVA) followed by ad-hoc Bonferroni's t test. […] In this in vivo model the dose-response curve of safinamide methanesulfonate at increasing doses (0.3, 1, 3, 10 and 30 mg/kg as free base) was also studied. To allow comparison between rats, the TRR measured at each time point was normalized as a function of TRR measured 10 min after 9AC injection in the same rat. Then average data were calculated for each drug/dosage as the mean±S.E.M. Statistical analysis will be performed using one-way analysis of variance (ANOVA) followed by ad-hoc Bonferroni's t test.

[3] = test system: hNav1.4 point mutations; assay: Potency in cells transfected with hNav1.4 point mutations compared to wild type; type: cell-based, human
Description: The effect of safinamide was evaluated on some hNav1.4 point mutations located in the inactivation site. Human skeletal muscle subtype of voltage-gated sodium channels (hNav1.4), either wild-type or myotonic mutants, were transiently transfected in HEK293T cells with the calcium-phosphate co-precipitation method. Whole-cell sodium currents (INa) were recorded at room temperature (20-22° C.) using Axon conventional patch-clamp hardware (Molecular Devices, USA). Voltage clamp protocols and data acquisition were performed with pCLAMP software (Axon Instruments). Bath solution contained (mM) 150 NaCl, 4 KCl, 2 CaCl2, 1 MgCl2, 5 Na-HEPES, and 5 glucose (pH 7.4). The pipette solution contained (in mM) 120 CsF, 10 CsCl, 10 NaCl, 5 EGTA, and 5 Cs-HEPES (pH 7.2). Patch pipettes made with Corning 7052 glass (King glass, USA) had resistance ranging from 1 to 3 MΩ. […] The concentration-response curves of safinamide were produced by obtaining the peak current amplitude measured in the presence of drug (IDRUG), normalized to the peak current amplitude measured in the same cell before drug application (ICTRL), as a function of drug concentration [(DRUG)]. […] The IC50 values were determined at resting membrane potential (tonic block: -120 mV at 0.1 Hz) and after repetitive depolarizing pulses to -20 mV at 10 Hz (use and frequency-dependent block). […]

[4] = molecular target: T1, hNav1.4 F1298C (Homo sapiens, UniProt P35499, F1298C); assay: Whole-cell patch clamp sodium current inhibition in transfected HEK293T cells, F1298C mutant; type: cell-based
T1 construct: expressed in transfected cells; host or cells: HEK293T
T1 sequence (P35499 whole entry F1298C): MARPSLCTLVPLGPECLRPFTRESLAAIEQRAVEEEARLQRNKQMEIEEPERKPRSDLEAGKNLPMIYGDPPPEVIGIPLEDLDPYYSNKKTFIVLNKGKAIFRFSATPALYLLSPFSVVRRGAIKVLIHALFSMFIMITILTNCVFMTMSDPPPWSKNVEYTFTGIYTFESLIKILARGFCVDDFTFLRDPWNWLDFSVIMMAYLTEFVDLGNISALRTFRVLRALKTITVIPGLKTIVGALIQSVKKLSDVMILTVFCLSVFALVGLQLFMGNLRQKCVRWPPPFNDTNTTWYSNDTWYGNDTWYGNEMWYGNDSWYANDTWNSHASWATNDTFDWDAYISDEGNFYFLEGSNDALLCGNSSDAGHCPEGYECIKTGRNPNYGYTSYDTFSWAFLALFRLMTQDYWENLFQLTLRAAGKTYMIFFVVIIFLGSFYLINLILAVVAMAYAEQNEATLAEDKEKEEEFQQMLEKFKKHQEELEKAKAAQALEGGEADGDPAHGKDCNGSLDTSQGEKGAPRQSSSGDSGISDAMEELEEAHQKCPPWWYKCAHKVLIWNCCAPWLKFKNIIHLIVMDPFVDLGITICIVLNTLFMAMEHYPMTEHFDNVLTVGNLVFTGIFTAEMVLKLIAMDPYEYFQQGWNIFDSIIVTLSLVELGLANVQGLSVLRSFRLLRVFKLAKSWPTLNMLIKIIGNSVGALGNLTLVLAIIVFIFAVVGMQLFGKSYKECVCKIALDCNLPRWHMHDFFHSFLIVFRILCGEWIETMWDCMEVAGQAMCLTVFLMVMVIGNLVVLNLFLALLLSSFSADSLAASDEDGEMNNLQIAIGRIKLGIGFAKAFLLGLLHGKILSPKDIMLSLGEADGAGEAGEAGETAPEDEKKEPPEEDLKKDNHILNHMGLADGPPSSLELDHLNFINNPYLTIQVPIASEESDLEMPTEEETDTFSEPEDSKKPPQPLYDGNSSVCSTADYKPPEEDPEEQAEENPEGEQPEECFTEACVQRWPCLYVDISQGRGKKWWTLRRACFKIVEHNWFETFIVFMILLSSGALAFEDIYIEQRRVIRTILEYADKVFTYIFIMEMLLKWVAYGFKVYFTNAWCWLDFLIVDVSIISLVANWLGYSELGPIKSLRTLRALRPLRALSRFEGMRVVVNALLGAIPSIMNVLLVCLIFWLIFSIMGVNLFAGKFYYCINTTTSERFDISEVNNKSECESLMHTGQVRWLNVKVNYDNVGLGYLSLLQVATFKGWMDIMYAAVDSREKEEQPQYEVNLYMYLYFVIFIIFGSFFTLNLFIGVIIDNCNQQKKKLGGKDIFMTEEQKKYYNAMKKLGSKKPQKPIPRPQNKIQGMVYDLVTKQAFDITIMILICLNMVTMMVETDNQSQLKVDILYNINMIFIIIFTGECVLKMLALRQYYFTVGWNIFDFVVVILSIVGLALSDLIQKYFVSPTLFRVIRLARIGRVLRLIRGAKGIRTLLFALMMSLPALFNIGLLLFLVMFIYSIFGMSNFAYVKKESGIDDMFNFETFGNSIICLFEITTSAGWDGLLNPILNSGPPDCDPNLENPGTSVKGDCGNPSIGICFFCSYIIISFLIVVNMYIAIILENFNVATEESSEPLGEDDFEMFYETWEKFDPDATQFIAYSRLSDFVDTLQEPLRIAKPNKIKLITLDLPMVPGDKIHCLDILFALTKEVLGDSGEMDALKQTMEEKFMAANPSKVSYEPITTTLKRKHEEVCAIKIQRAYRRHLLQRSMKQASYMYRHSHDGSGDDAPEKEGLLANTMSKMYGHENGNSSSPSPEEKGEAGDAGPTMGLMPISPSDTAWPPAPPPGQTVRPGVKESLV
Description: p.F1298C: this mutation was found in a person, presenting with stiffness in facial, upper and lower limb muscles, mainly after contraction (Farinato et al., 2019). Symptoms worsened with cold and myotonia was reported as painful. The patient noticed a mild improvement of myotonia with exercise.
(§1) Human skeletal muscle subtype of voltage-gated sodium channels (hNav1.4), either wild-type or myotonic mutants, were transiently transfected in HEK293T cells with the calcium-phosphate co-precipitation method. Whole-cell sodium currents (INa) were recorded at room temperature (20-22° C.) using Axon conventional patch-clamp hardware (Molecular Devices, USA). […]
(§2) Inhibition of hNav1.4 channels by safinamide was evaluated by measuring the reduction of INa elicited from a holding potential (HP) of −120 to −30 mV at frequency stimulations of 0.1 and 10 Hz. The concentration-response curves of safinamide were produced by obtaining the peak current amplitude measured in the presence of drug (IDRUG), normalized to the peak current amplitude measured in the same cell before drug application (ICTRL), as a function of drug concentration [(DRUG)]. […] The IC50 values were determined at resting membrane potential (tonic block: −120 mV at 0.1 Hz) and after repetitive depolarizing pulses to −20 mV at 10 Hz (use and frequency-dependent block). […]

[5] = molecular target: T2, Wild Type hNav1.4 (Homo sapiens, UniProt P35499); assay: Whole-cell patch clamp sodium current inhibition in transfected HEK293T cells, wild type; type: cell-based
T2 construct: expressed in transfected cells; host or cells: HEK293T
T2 sequence (P35499 whole entry): as the sequence (P35499 whole entry F1298C) above, with C1298F counted along it
Description: (§3) Human skeletal muscle subtype of voltage-gated sodium channels (hNav1.4), either wild-type or myotonic mutants, were transiently transfected in HEK293T cells with the calcium-phosphate co-precipitation method. Whole-cell sodium currents (INa) were recorded at room temperature (20-22° C.) using Axon conventional patch-clamp hardware (Molecular Devices, USA). Voltage clamp protocols and data acquisition were performed with pCLAMP software (Axon Instruments). Bath solution contained (mM) 150 NaCl, 4 KCl, 2 CaCl2, 1 MgCl2, 5 Na-HEPES, and 5 glucose (pH 7.4). The pipette solution contained (in mM) 120 CsF, 10 CsCl, 10 NaCl, 5 EGTA, and 5 Cs-HEPES (pH 7.2). […]
as §2

[6] = molecular target: hNav1.4 I1310N (Homo sapiens, UniProt P35499, I1310N); assay: Whole-cell patch clamp sodium current inhibition in transfected HEK293T cells, I1310N mutant; type: cell-based
Sequence of hNav1.4 I1310N (P35499 whole entry I1310N): as the sequence (P35499 whole entry F1298C) above, with C1298F, I1310N counted along it
Description: p.I1310N: this mutation has been found in 5 related of a French kindred, and is associated to sodium channel myotonia (Farinato et al., 2019).
as §3, with “7.4).” for “7.4). The pipette solution contained (in mM) 120 CsF, 10 CsCl, 10 NaCl, 5 EGTA, and 5 Cs-HEPES (pH 7.2).”
as §2

[7] = molecular target: T3, hNav1.4 V1293I (Homo sapiens, UniProt P35499, V1293I); assay: Whole-cell patch clamp sodium current inhibition in transfected HEK293T cells, V1293I mutant; type: cell-based
T3 construct: expressed in transfected cells; host or cells: HEK293T
T3 sequence (P35499 whole entry V1293I): as the sequence (P35499 whole entry F1298C) above, with V1293I, C1298F counted along it
Description: p.V1293I: the V1293I mutation is associated to various phenotypes, from sodium channel myotonia to paramyotonia congenita+hyperkalemic periodic paralysis (Koch et al., 1995).
as §1, with “USA). Voltage clamp protocols and data acquisition were performed with pCLAMP software (Axon Instruments).” for “USA).”
as §2

[8] = molecular target: T4, hNav1.4 P1158L (Homo sapiens, UniProt P35499, P1158L); assay: Whole-cell patch clamp sodium current inhibition in transfected HEK293T cells, P1158L mutant; type: cell-based
T4 construct: expressed in transfected cells; host or cells: HEK293T
T4 sequence (P35499 whole entry P1158L): as the sequence (P35499 whole entry F1298C) above, with P1158L, C1298F counted along it
Description: as §3, §2

[9] = HP -120 mV, 0.1 Hz, read-out: IC50 ± SE Tonic block at 0.1 Hz
[10] = repetitive depolarizing pulses, 10 Hz, read-out: IC50 ± SE Use and frequency-dependent block at 10 Hz

SMILES: O=C(O)c1c2ccccc2cc2ccccc12 [9-AC, 9-anthracene carboxylic acid]
increase of N spikes ([1]; 50 μM 9-AC alone vs control): 60%
time of righting reflex (TRR) ([2]; 10 min after 9-AC injection): about 2 s
time of righting reflex (TRR) ([2]; 30 min after 9-AC injection): about 4 s
time of righting reflex (TRR) ([2]; 3 h after 9-AC injection): ~1 s

SMILES: Cc1cccc(C)c1OCC(C)N (centres unmarked) [mexiletine]
potency in hNav1.4 point mutations transfected cells [3]: significantly decreases
potency relative to safinamide in the same test (fold less potent) ([2]; TRR, 9-AC rat model): about 6 fold

IC50 [4, 9]: 173 ± 12 µM
IC50 [4, 10]: 83 ± 2 µM
IC50 [5, 9]: 160 ± 18 µM
IC50 [5, 10]: 33 ± 4 µM
IC50 [6, 9]: 170 ± 26 µM
IC50 [6, 10]: 46 ± 7 µM
IC50 ([1]; Rattus norvegicus, fit of concentration-response curve, ±SE of the fit, 50 μM 9-AC, read-out: IC50 (concentration able to reduce by 50% the 9-AC effect)): 13.4 ± 2.4 µM
IC50 [7, 9]: 171 ± 19 µM
IC50 [7, 10]: 47 ± 5 µM
IC50 [8, 9]: 148 ± 13 µM
IC50 [8, 10]: 34 ± 3 µM
SMILES: C[C@H](NCc1ccc(OCc2cccc(F)c2)cc1)C(N)=O [safinamide, (2S)-2-[[4-[(3-fluorophenyl)methoxy]phenyl]methylamino]propanamide]
reduction of N spikes (maximum number of spikes) ([1]; safinamide 1 μM with 50 μM 9-AC): 22±6%
reduction of N spikes (maximum number of spikes) ([1]; safinamide 5 μM with 50 μM 9-AC): 35±5%
reduction of N spikes (maximum number of spikes) ([1]; safinamide 10 μM with 50 μM 9-AC): 42±5%
reduction of N spikes (maximum number of spikes) ([1]; safinamide 30 μM with 50 μM 9-AC): 60±6%
reversibility of antimyotonic effect upon wash-out ([1]; wash-out, 9-AC 50 μM): reversible
reduction of TRR ([2]; 37 min after 9-AC, 3, 10 and 30 mg/kg oral): significant
maximal effect on TRR prolongation ([2]; 67 min, dose of 10-30 mg/kg oral): 66%
TRR inhibition ([2]; 67 min after 9-AC (peak effect), also with 1 mg/kg oral): significant
TRR inhibition ([2]; 127 min after 9-AC, only 10 and 30 mg/kg oral): significant inhibition
ED50 ([2]; Rattus norvegicus, 67 min, dose-response curve at 67 min, oral, read-out: ED50 (effective dose in inhibiting by 50% TRR prolongation)): 1.2 mg/kg
effect on 9-AC-induced TRR prolongation ([2]; at peak effect (37 and 67 min after 9-AC), oral gavage): dose-dependently and significantly counteracted
duration of effect on TRR prolongation ([2]; oral gavage, 17 min after 9-AC): ≤ 120 min
